{
  "source": "PubChem BioAssay AID1919004",
  "about": "(Molecular Pharmacology Branch, DTP, NCI, 2023);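 also: exposure lasted 7 days after dosing on day 3 of spheroid growth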",
  "tested_on": "883617-216-R-J1-PDC complex spheroids, growth, % test/control",
  "experiment": "Anticancer human tumor 883617-216-R-J1-PDC patient-derived bladder carcinoma cell line growth inhibition [AhR]",
  "settings": "for IC50: curve of first compound; for viability, T/C: stronger effect = lower value",
  "method_in_brief": "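Spheroids combined tumor cells with HUVEC endothelial cells and human MSCs as stroma. AhR antagonists were paired with standard or investigational drugs, each dosed in half-log steps down from near clinical Cmax, or from 10 microM where Cmax was unknown.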",
  "data": [
    {"smiles": "O=C(C=Cn1cnc(-c2cc(C(F)(F)F)cc(C(F)(F)F)c2)n1)NNc1cnccn1", "note": "+ CC(CO)NC(=O)c1cc(-c2ccc(Cl)cc2)nn(-c2cnn(C)c2)c1=O", "values": [
      {"measurement": "IC50", "setting": "second compound 0.1 µM", "value": 155, "unit": "nM"},
      {"measurement": "IC50", "setting": "second compound 0.316 µM", "value": 351, "unit": "nM"},
      {"measurement": "IC50", "setting": "second compound 1 µM", "value": 187, "unit": "nM"},
      {"measurement": "IC50", "setting": "second compound 3.16 µM", "value": 180, "unit": "nM"},
      {"measurement": "IC50", "setting": "second compound 10 µM", "value": 165, "unit": "nM"},
      {"measurement": "viability, T/C", "setting": "second compound 0.1 µM, first compound 0.00949 µM", "value": 93.7, "unit": "%"},
      {"measurement": "viability, T/C", "setting": "second compound 0.1 µM, first compound 0.03 µM", "value": 78.1, "unit": "%"},
      {"measurement": "viability, T/C", "setting": "second compound 0.1 µM, first compound 0.0949 µM", "value": 56.8, "unit": "%"},
      {"measurement": "viability, T/C", "setting": "second compound 0.1 µM, first compound 0.3 µM", "value": 40.4, "unit": "%"},
      {"measurement": "viability, T/C", "setting": "second compound 0.1 µM, first compound 0.949 µM", "value": 34.5, "unit": "%"},
      {"measurement": "viability, T/C", "setting": "second compound 0.1 µM, first compound 3 µM", "value": 29.7, "unit": "%"},
      {"measurement": "viability, T/C", "setting": "second compound 0.316 µM, first compound 0.00949 µM", "value": 109, "unit": "%"},
      {"measurement": "viability, T/C", "setting": "second compound 0.316 µM, first compound 0.03 µM", "value": 79.4, "unit": "%"},
      {"measurement": "viability, T/C", "setting": "second compound 0.316 µM, first compound 0.0949 µM", "value": 71, "unit": "%"},
      {"measurement": "viability, T/C", "setting": "second compound 0.316 µM, first compound 0.3 µM", "value": 50.1, "unit": "%"},
      {"measurement": "viability, T/C", "setting": "second compound 0.316 µM, first compound 0.949 µM", "value": 37.8, "unit": "%"},
      {"measurement": "viability, T/C", "setting": "second compound 0.316 µM, first compound 3 µM", "value": 37.2, "unit": "%"},
      {"measurement": "viability, T/C", "setting": "second compound 1 µM, first compound 0.00949 µM", "value": 60.4, "unit": "%"},
      {"measurement": "viability, T/C", "setting": "second compound 1 µM, first compound 0.03 µM", "value": 76.3, "unit": "%"},
      {"measurement": "viability, T/C", "setting": "second compound 1 µM, first compound 0.0949 µM", "value": 65, "unit": "%"},
      {"measurement": "viability, T/C", "setting": "second compound 1 µM, first compound 0.3 µM", "value": 37.2, "unit": "%"},
      {"measurement": "viability, T/C", "setting": "second compound 1 µM, first compound 0.949 µM", "value": 46.8, "unit": "%"},
      {"measurement": "viability, T/C", "setting": "second compound 1 µM, first compound 3 µM", "value": 34.5, "unit": "%"},
      {"measurement": "viability, T/C", "setting": "second compound 3.16 µM, first compound 0.00949 µM", "value": 65.1, "unit": "%"},
      {"measurement": "viability, T/C", "setting": "second compound 3.16 µM, first compound 0.03 µM", "value": 61.9, "unit": "%"},
      {"measurement": "viability, T/C", "setting": "second compound 3.16 µM, first compound 0.0949 µM", "value": 71.2, "unit": "%"},
      {"measurement": "viability, T/C", "setting": "second compound 3.16 µM, first compound 0.3 µM", "value": 32.4, "unit": "%"},
      {"measurement": "viability, T/C", "setting": "second compound 3.16 µM, first compound 0.949 µM", "value": 50.3, "unit": "%"},
      {"measurement": "viability, T/C", "setting": "second compound 3.16 µM, first compound 3 µM", "value": 29.1, "unit": "%"},
      {"measurement": "viability, T/C", "setting": "second compound 10 µM, first compound 0.00949 µM", "value": 72.3, "unit": "%"},
      {"measurement": "viability, T/C", "setting": "second compound 10 µM, first compound 0.03 µM", "value": 46.9, "unit": "%"},
      {"measurement": "viability, T/C", "setting": "second compound 10 µM, first compound 0.0949 µM", "value": 75.3, "unit": "%"},
      {"measurement": "viability, T/C", "setting": "second compound 10 µM, first compound 0.3 µM", "value": 34.1, "unit": "%"},
      {"measurement": "viability, T/C", "setting": "second compound 10 µM, first compound 0.949 µM", "value": 37.5, "unit": "%"},
      {"measurement": "viability, T/C", "setting": "second compound 10 µM, first compound 3 µM", "value": 24.9, "unit": "%"}
    ]},
    {"smiles": "COc1cc(Nc2ncc3c(n2)-c2ccc(Cl)cc2C(c2c(F)cccc2OC)=NC3)ccc1C(=O)O", "note": "+ CC(CO)NC(=O)c1cc(-c2ccc(Cl)cc2)nn(-c2cnn(C)c2)c1=O", "values": [
      {"measurement": "IC50", "setting": "second compound 0.1 µM", "value": "> 10000", "unit": "nM"},
      {"measurement": "IC50", "setting": "second compound 0.316 µM", "value": "> 10000", "unit": "nM"},
      {"measurement": "IC50", "setting": "second compound 1 µM", "value": "> 10000", "unit": "nM"},
      {"measurement": "IC50", "setting": "second compound 3.16 µM", "value": "> 10000", "unit": "nM"},
      {"measurement": "IC50", "setting": "second compound 10 µM", "value": "> 10000", "unit": "nM"},
      {"measurement": "viability, T/C", "setting": "second compound 0.1 µM, first compound 0.0316 µM", "value": 140, "unit": "%"},
      {"measurement": "viability, T/C", "setting": "second compound 0.1 µM, first compound 0.1 µM", "value": 128, "unit": "%"},
      {"measurement": "viability, T/C", "setting": "second compound 0.1 µM, first compound 0.316 µM", "value": 77.8, "unit": "%"},
      {"measurement": "viability, T/C", "setting": "second compound 0.1 µM, first compound 1 µM", "value": 97, "unit": "%"},
      {"measurement": "viability, T/C", "setting": "second compound 0.1 µM, first compound 3.16 µM", "value": 86.6, "unit": "%"},
      {"measurement": "viability, T/C", "setting": "second compound 0.1 µM, first compound 10 µM", "value": 120, "unit": "%"},
      {"measurement": "viability, T/C", "setting": "second compound 0.316 µM, first compound 0.0316 µM", "value": 128, "unit": "%"},
      {"measurement": "viability, T/C", "setting": "second compound 0.316 µM, first compound 0.1 µM", "value": 85, "unit": "%"},
      {"measurement": "viability, T/C", "setting": "second compound 0.316 µM, first compound 0.316 µM", "value": 80.5, "unit": "%"},
      {"measurement": "viability, T/C", "setting": "second compound 0.316 µM, first compound 1 µM", "value": 87, "unit": "%"},
      {"measurement": "viability, T/C", "setting": "second compound 0.316 µM, first compound 3.16 µM", "value": 60.8, "unit": "%"},
      {"measurement": "viability, T/C", "setting": "second compound 0.316 µM, first compound 10 µM", "value": 95.6, "unit": "%"},
      {"measurement": "viability, T/C", "setting": "second compound 1 µM, first compound 0.0316 µM", "value": 124, "unit": "%"},
      {"measurement": "viability, T/C", "setting": "second compound 1 µM, first compound 0.1 µM", "value": 123, "unit": "%"},
      {"measurement": "viability, T/C", "setting": "second compound 1 µM, first compound 0.316 µM", "value": 93.3, "unit": "%"},
      {"measurement": "viability, T/C", "setting": "second compound 1 µM, first compound 1 µM", "value": 48.3, "unit": "%"},
      {"measurement": "viability, T/C", "setting": "second compound 1 µM, first compound 3.16 µM", "value": 103, "unit": "%"},
      {"measurement": "viability, T/C", "setting": "second compound 1 µM, first compound 10 µM", "value": 101, "unit": "%"},
      {"measurement": "viability, T/C", "setting": "second compound 3.16 µM, first compound 0.0316 µM", "value": 77, "unit": "%"},
      {"measurement": "viability, T/C", "setting": "second compound 3.16 µM, first compound 0.1 µM", "value": 103, "unit": "%"},
      {"measurement": "viability, T/C", "setting": "second compound 3.16 µM, first compound 0.316 µM", "value": 135, "unit": "%"},
      {"measurement": "viability, T/C", "setting": "second compound 3.16 µM, first compound 1 µM", "value": 105, "unit": "%"},
      {"measurement": "viability, T/C", "setting": "second compound 3.16 µM, first compound 3.16 µM", "value": 70.9, "unit": "%"},
      {"measurement": "viability, T/C", "setting": "second compound 3.16 µM, first compound 10 µM", "value": 70.6, "unit": "%"},
      {"measurement": "viability, T/C", "setting": "second compound 10 µM, first compound 0.0316 µM", "value": 130, "unit": "%"},
      {"measurement": "viability, T/C", "setting": "second compound 10 µM, first compound 0.1 µM", "value": 71, "unit": "%"},
      {"measurement": "viability, T/C", "setting": "second compound 10 µM, first compound 0.316 µM", "value": 121, "unit": "%"},
      {"measurement": "viability, T/C", "setting": "second compound 10 µM, first compound 1 µM", "value": 125, "unit": "%"},
      {"measurement": "viability, T/C", "setting": "second compound 10 µM, first compound 3.16 µM", "value": 71.7, "unit": "%"},
      {"measurement": "viability, T/C", "setting": "second compound 10 µM, first compound 10 µM", "value": 88.4, "unit": "%"}
    ]}
  ]
}
